Experimental data as given in US7659279B2, “Quinazoline derivatives and their use in the treatment of cancer” (AstraZeneca AB, priority 2003, dated 2010).

Legend:
[1] = tested on: KB cells (human naso-pharangeal carcinoma); assay: Test (b) KB cell proliferation assay; format: cell-based; settings: 96 h, EGF 1 ng/ml, 4 days, MTT, read-out: IC50 (nM) Test (b): EGFR driven KB cell proliferation assay
Protocol: b) KB Cell Proliferation Assay
This assay measures the ability of a test compound to inhibit the EGF driven proliferation of KB cells (human naso-pharangeal carcinoma obtained from the American Type Culture Collection (ATCC)).
KB cells were cultured in Dulbecco's modified Eagle's medium (DMEM) containing 10% foetal calf serum, 2 mM glutamine and non-essential amino acids at 37° C. in a 7.5% CO2 air incubator. Cells were harvested from the stock flasks using Trypsin/ethylaminediaminetetraacetic acid (EDTA). Cell density was measured using a haemocytometer and viability was calculated using trypan blue solution before being seeded at a density of 1.25×10^3 cells per well of a 96 well plate in DMEM containing 2.5% charcoal stripped serum, 2 mM glutamine and non-essential amino acids at 37° C. in 7.5% CO2 and allowed to settle for 4 hours.
Following adhesion to the plate, the cells are treated with or without EGF (final concentration of 1 ng/ml) and with or without compound at a range of concentrations in dimethylsulfoxide (DMSO) (1% final) in a final volume of 200 μl before incubation for 4 days at 37° C. in 7.5% CO2. Following the incubation period, cell numbers were determined by addition of 50 μl of 3-(4,5-Dimethylthiazol-2-yl)-2,5-diphenyltetrazolium bromide (MTT) (stock 5 mg/ml) and incubated at 37° C. in a 7.5% CO2 air incubator for 2 hours. MTT solution was then removed from the cells by aspiration, which were then allowed to air dry and were dissolved upon the addition of 100 μl of DMSO.
Absorbance of this solubilised cells was read at 540 nm to quantify cell biomass. Inhibition of proliferation was expressed as an IC50 value. This was determined by calculation of the concentration of compound that was required to give 50% inhibition of proliferation. The range of proliferation was calculated from the positive (vehicle plus EGF) and negative (vehicle minus EGF) control values.

erbB2 tyrosine kinase = molecular target: T1, erbB2 tyrosine kinase (Homo sapiens, UniProt P04626); assay: Test (a) protein tyrosine kinase phosphorylation assay, erbB2; format: biochemical; settings: recombinant intracellular fragment; ATP at Km concentration; read-out: IC50 (nM) Test (a): Inhibition of erbB2 tyrosine kinase protein phosphorylation
T1 construct: Recombinant intracellular fragments of EGFR, erbB2 and erbB4; made in house; host or cells: baculovirus/Sf21 insect cells (cleared lysate used)
T1 sequence (P04626 676-1255 limits assumed): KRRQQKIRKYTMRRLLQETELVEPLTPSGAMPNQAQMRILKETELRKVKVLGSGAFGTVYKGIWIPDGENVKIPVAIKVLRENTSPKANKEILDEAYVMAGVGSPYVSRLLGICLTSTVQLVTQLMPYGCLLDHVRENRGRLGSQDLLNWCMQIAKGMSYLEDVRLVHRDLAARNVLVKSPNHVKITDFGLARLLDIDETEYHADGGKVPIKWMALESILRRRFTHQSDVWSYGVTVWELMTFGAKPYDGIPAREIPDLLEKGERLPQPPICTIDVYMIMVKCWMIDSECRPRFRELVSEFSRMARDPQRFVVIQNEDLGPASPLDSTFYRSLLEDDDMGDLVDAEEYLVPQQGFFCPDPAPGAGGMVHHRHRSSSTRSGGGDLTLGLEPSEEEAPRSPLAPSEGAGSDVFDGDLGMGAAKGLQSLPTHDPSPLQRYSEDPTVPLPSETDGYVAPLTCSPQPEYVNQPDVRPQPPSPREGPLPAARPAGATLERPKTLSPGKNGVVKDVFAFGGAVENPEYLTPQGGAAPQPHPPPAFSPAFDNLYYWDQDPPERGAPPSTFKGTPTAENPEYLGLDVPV
Protocol: (§1) a) Protein Tyrosine Kinase Phosphorylation Assays
(§2) Recombinant intracellular fragments of EGFR, erbB2 and erbB4 (accession numbers X00588, X03363 and L07868 respectively) were cloned and expressed in the baculovirus/Sf21 system. Lysates were prepared from these cells by treatment with ice-cold lysis buffer (20 mM N-2-hydroxyethylpiperizine-N′-2-ethanesulfonic acid (HEPES) pH7.5, 150 mM NaCl, 10% glycerol, 1% Triton X-100, 1.5 mM MgCl2, 1 mM ethylene glycol-bis(β-aminoethyl ether) N′,N′,N′,N′-tetraacetic acid (EGTA), plus protease inhibitors and then cleared by centrifugation.
(§3) Constitutive kinase activity of the recombinant protein was determined by its ability to phosphorylate a synthetic peptide (made up of a random co-polymer of Glutamic Acid, Alanine and Tyrosine in the ratio of 6:3:1). Specifically, Maxisorb™ 96-well immunoplates were coated with synthetic peptide ([…] of peptide in a 100 μl phosphate buffered saline (PBS) solution and incubated at 4° C. overnight). Plates were washed in PBS-T (phosphate buffered saline with 0.5% Tween 20) then in 50 mM HEPES pH 7.4 at room temperature to remove any excess unbound synthetic peptide. EGFR, ErbB2 or ErbB4 tyrosine kinase activity was assessed by incubation in peptide coated plates for 20 minutes at 22° C. in 100 mM HEPES pH 7.4, adenosine trisphosphate (ATP) at Km concentration for the respective enzyme, 10 mM MnCl2, 0.1 mM Na3VO4, 0.2 mM DL-dithiothreitol (DTT), 0.1% Triton X-100 with test compound in DMSO (final concentration of 2.5%). Reactions were terminated by the removal of the liquid components of the assay followed by washing of the plates with PBS-T.
(§4) The immobilised phospho-peptide product of the reaction was detected by immunological methods. Firstly, plates were incubated for 90 minutes at room temperature with anti-phosphotyrosine primary antibodies that were raised in the mouse (4G10 from Upstate Biotechnology). Following extensive washing, plates were treated with Horseradish Peroxidase ([…]) conjugated sheep anti-mouse secondary antibody (NXA931 from Amersham) for 60 minutes at room temperature. After further washing, HRP activity in each well of the plate was measured […] using 22′-Azino-di-[3-ethylbenzthiazoline sulfonate (6)] diammonium salt crystals (ABTS™ from Roche) as a substrate.
(§5) Quantification of colour development and thus enzyme activity was achieved by the measurement of absorbance at 405 nm on a Molecular Devices ThermoMax microplate reader. Kinase inhibition for a given compound was expressed as an IC50 value. This was determined by calculation of the concentration of compound that was required to give 50% inhibition of phosphorylation in this assay. The range of phosphorylation was calculated from the positive (vehicle plus ATP) and negative (vehicle minus ATP) control values.

EGFR tyrosine kinase = molecular target: T2, EGFR tyrosine kinase (Homo sapiens, UniProt P00533); assay: Test (a) protein tyrosine kinase phosphorylation assay, EGFR; format: biochemical; settings: recombinant intracellular fragment; ATP at Km concentration; read-out: IC50 (nM) Test (a): Inhibition of EGFR tyrosine kinase protein phosphorylation
T2 construct: Recombinant intracellular fragments of EGFR, erbB2 and erbB4; made in house; host or cells: baculovirus/Sf21 insect cells (cleared lysate used)
T2 sequence (P00533 669-1210 limits assumed): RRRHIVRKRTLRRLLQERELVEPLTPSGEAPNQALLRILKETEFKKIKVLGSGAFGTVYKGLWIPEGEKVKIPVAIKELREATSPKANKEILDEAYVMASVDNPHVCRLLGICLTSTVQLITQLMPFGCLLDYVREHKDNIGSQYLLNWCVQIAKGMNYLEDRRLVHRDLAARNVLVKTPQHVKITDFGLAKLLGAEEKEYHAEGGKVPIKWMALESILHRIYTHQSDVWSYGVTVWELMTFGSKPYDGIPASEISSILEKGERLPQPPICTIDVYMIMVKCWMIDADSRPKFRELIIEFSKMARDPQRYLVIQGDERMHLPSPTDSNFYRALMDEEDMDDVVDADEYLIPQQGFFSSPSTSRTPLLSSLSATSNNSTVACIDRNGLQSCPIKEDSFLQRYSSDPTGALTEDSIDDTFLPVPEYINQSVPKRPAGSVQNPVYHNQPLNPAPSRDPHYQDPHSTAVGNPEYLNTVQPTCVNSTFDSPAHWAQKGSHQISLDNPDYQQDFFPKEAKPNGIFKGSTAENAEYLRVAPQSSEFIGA
Protocol: as §1
This test measures the ability of a test compound to inhibit the phosphorylation of a tyrosine containing polypeptide substrate by EGFR tyrosine kinase enzyme.
as §2, §3, §4, §5

| SMILES | IC50 [1] | IC50 (erbB2 tyrosine kinase) | IC50 (EGFR tyrosine kinase) |
| --- | --- | --- | --- |
| COc1cc(OC[C@@H]2CCCN2C(=O)CN(C)C)c2c(Nc3ccc(F)c(Cl)c3)ncnc2c1 [Example 2, N-(3-Chloro-4-fluorophenyl)-5-({(2S)-1-[(dimethylamino)acetyl]pyrrolidin-2-yl}methoxy)-7-methoxyquinazolin-4-amine] | 141 nM | 1850 nM | 70 nM |
| COc1cc(OC[C@H]2CCCN2C(=O)CO)c2c(Nc3ccc(F)c(Cl)c3)ncnc2c1 [Example 3, 2-{(2R)-2-[({4-[3-Chloro-4-fluoroanilino]-7-methoxyquinazolin-5-yl}oxy)methyl]pyrrolidin-1-yl}-2-oxoethanol] | 91 nM | 275 nM | 9 nM |
| COc1cc(OC[C@H]2CCCN2C(=O)CN(C)C)c2c(Nc3ccc(F)c(Cl)c3)ncnc2c1 [Example 4] | 138 nM | 252 nM | 39 nM |
| COc1cc(OC[C@@H]2CCCN2C(=O)CN2CCCC2)c2c(Nc3ccc(F)c(Cl)c3)ncnc2c1 [Example 6, N-(3-Chloro-4-fluorophenyl)-7-methoxy-5-{[(2S)-1-(pyrrolidin-1-ylacetyl)pyrrolidin-2-yl]methoxy}quinazolin-4-amine] | 130 nM | 1630 nM | 57 nM |
| COc1cc(OC[C@H]2CCCN2C(C)=O)c2c(Nc3ccc(F)c(Cl)c3)ncnc2c1 [Example 13, 5-{[(2R)-1-Acetylpyrrolidin-2-yl]methoxy}-N-(3-chloro-4-fluorophenyl)-7-methoxyquinazolin-4-amine] | 28 nM | 358 nM | 1 nM |
| O=C(CO)N1CCC[C@@H]1COc1cc(OCCO)cc2ncnc(Nc3ccc(F)c(Cl)c3)c12 [Example 16, 2-[(2R)-2-({[4-[3-Chloro-4-fluoroanilino]-7-(2-hydroxyethoxy)quinazolin-5-yl]oxy}methyl)pyrrolidin-1-yl]-2-oxoethanol] | 128 nM | 52 nM | 1 nM |
| CCOCCOc1cc(OC[C@H]2CCCN2C(=O)CO)c2c(Nc3ccc(F)c(Cl)c3)ncnc2c1 [Example 18, 2-[(2R)-2-({[4-[3-Chloro-4-fluoroanilino]-7-(2-ethoxyethoxy)quinazolin-5-yl]oxy}methyl)pyrrolidin-1-yl]-2-oxoethanol] | 99 nM | 85 nM | 8 nM |
| COc1cc(OC[C@H]2C[C@H](O)CN2C(C)=O)c2c(Nc3ccc(F)c(Cl)c3)ncnc2c1 [Example 22, (3S,5R)-1-Acetyl-5-[({4-[3-chloro-4-fluoroanilino]-7-methoxyquinazolin-5-yl}oxy)methyl]pyrrolidin-3-ol] | 75 nM | 61 nM | 1 nM |

Second part, the molecule after the results:

| IC50 [1] | IC50 (erbB2 tyrosine kinase) | IC50 (EGFR tyrosine kinase) | SMILES |
| --- | --- | --- | --- |
| 288 nM | 1730 nM | 56 nM | COCC(=O)N1C[C@@H](O)C[C@@H]1COc1cc(OC)cc2ncnc(Nc3ccc(F)c(Cl)c3)c12 [Example 23, (3S,5R)-5-[({4-[3-Chloro-4-fluoroanilino]-7-methoxyquinazolin-5-yl}oxy)methyl]-1-(methoxyacetyl)pyrrolidin-3-ol] |
| 156 nM | 1910 nM | 32 nM | COc1cc(OC[C@@H]2C[C@@H](O)CN2C(=O)CO)c2c(Nc3ccc(F)c(Cl)c3)ncnc2c1 [Example 25, (3R,5S)-5-[({4-[3-Chloro-4-fluoroanilino]-7-methoxyquinazolin-5-yl}oxy)methyl]1-glycoloylpyrrolidin-3-ol] |
| 112 nM | 532 nM | 42 nM | COc1cc(OC[C@@H]2C[C@H](O)CN2C(=O)CN(C)C)c2c(Nc3ccc(F)c(Cl)c3)ncnc2c1 [Example 31, (3S,5S)-5-[({4-[3-Chloro-4-fluoroanilino]-7-methoxyquinazolin-5-yl}oxy)methyl]-1-(N,N-dimethylglycyl)pyrrolidin-3-ol] |
| 118 nM | 215 nM | 18 nM | COc1cc(OC[C@H]2C[C@@H](O)CN2C(=O)CO)c2c(Nc3ccc(F)c(Cl)c3)ncnc2c1 [Example 32, (3R,5R)-5-[({4-[3-Chloro-4-fluoroanilino]-7-methoxyquinazolin-5-yl}oxy)methyl]-1-glycoloylpyrrolidin-3-ol] |
